In patent US7033593B2, “Immunogen comprising an HIV envelope protein, a ligand and H2 peptide” (priority 2000, dated 2006):
“Also recorded” adds a separate entry of the source.

Assays:
cleaved HIV 89.6 gp140 = cleaved HIV 89.6 gp140 (Human immunodeficiency virus type 1 group M subtype B, UniProt Q73372); type: binding; details: no sCD4
recombinant ADA gp41 = experiment: SPR binding of HR-2 peptide to immobilized recombinant gp41; set-up: species or system HIV ADA
Method: FIGS. 16A–16F show constitutive binding of HR-2 peptides to immobilized gp41 and CD4 induced binding to gp140. FIGS. 16A and 16B. Binding of DP178 (12.5 to 100 μg/ml) to immobilized ADA gp41 and CD4-gp140 (FIG. 16B) surfaces. FIGS. 16C and 16D. […] FIGS. 16E and 16F. Scatchard plots of RU vs RU/C for DP178 binding to gp41 (FIG. 16E) and to CD4-gp140 (FIG. 16F). Data are representative of 2 separate experiments.
Binding of HR-2 peptide to recombinant gp41. To directly determine if HR-2 peptides can constitutively bind to purified gp41, recombinant ADA gp41 was immobilized to a sensor surface and the binding of HR-2 peptide, DP178, determined. […] To compare the binding of DP178 HR-2 peptide to recombinant gp41 versus HIV 89.6 gp140-sCD4 complex, the equilibrium binding contants (Keq) of HR-2 binding to both were measured. While the Keq of DP178 binding to recombinant gp41 was weak at 26.7 μM (FIG. 16E), the Keq of DP178 binding to sCD4-gp140 was 10 fold stronger at 1.7 μM (FIG. 16F).

89.6 gp120 = 89.6 gp120 (Human immunodeficiency virus type 1 group M subtype B, UniProt Q73372); type: binding, HIV-1 89.6
Text: Biotinylated DP178 (FIG. 28A), scrDP178 (FIG. 28B) and scrDP107 (not shown) were attached to a SA-sensor chip through biotin-streptavidin interactions. 200–300 RU of each peptide was attached to individual flow cells of the SA chip. The scrDP107 surface was used as in-line reference subtraction of non-specific and bulk effect. All data shown here were derived after subtraction of signals from this reference surface. […] Data are a representative experiment of 3 performed.
The scrDP107 surface was used as a reference surface for subtracting bulk and non-specific binding. […] Soluble gp120 proteins, mabs or gp120 proteins pre-incubated with mabs were then injected at 20 μl/min for 2–3 min over each of the peptide-SA surface. Binding data was acquired following in-line reference subtraction of binding from the scrDP107 (HR-1) surface.
In these experiments (the “SA-chip assay”), biotinylated HR-2 peptides DP178 and scrDP178 were immobilized on adjacent flow cells of a streptavidin sensor chip (SA chip). […] The non-specific and bulk effect was measured over scrDP107 surface and this surface was used for automated in-line reference subtraction.

BaL gp120 = experiment: BIACORE capture assay: peptide binding to BaL gp120; set-up: species or system HIV-1 BaL; details: CCR5-utilizing isolate
Method: Rectangular bars represent the surface of the sensor chip on which sCD4 or mAbs A32 or T8 were covalently immobilized. Soluble gp120 proteins were first captured on each of these surfaces and then DP178 or sDP178 peptides were injected and their binding interactions were monitored. […] Based on their molecular size (1:27), 2000 RU of immobilized gp120 would bind 74 RU of DP178 peptide. […] Arrows point to start of injection of gp120 and DP178. […] In FIG. 27C, specific binding signal (solid) is shown after subtraction of non-specific signal (broken line). […] 50 μg/ml of DP178 peptide was flowed at 30 μl/min over each of these surfaces after 2000 RU of 89.6 gp120 was bound (FIG. 27D). In FIG. 27E, these same surfaces were also used to monitor binding of scrDP178 (50 μg/ml). […] (FIG. 27F) Binding of DP178 and DP107 peptides to A32-gp120 complex. […] Data are a representative experiment of 3 performed. […] 50 μg/ml of DP178 peptide was flowed at 30 μl/min over each of these surfaces after RU of BaL gp120 was bound (FIG. 27G). These same surfaces were also used to monitor binding of scrDP178 (50 μg/ml) (FIG. 27H).
Surface Plasmon Resonance Biosensor Measurements.

HIV-1 Env 89.6 gp120 = HIV-1 Env 89.6 gp120 (Human immunodeficiency virus type 1 group M subtype B, UniProt Q73372); experiment: biochemical; type: binding, HIV-1 89.6
HIV 89.6 gp140 = HIV 89.6 gp140 (Human immunodeficiency virus type 1 group M subtype B, UniProt Q73372); type: binding; details: biotinylated peptide
[1] = test system: T8-gp140 (HIV 89.6 gp140); details: SPR
Method: FIG. 14A. […] FIGS. 14B and 14C. […] After stabilization of gp140 capture, either the 19b (anti-gp120 V3) or 2F5 (anti-gp41) antibodies (300 μg/ml) were injected to assess the relative amounts of gp120 and gp41 on both surfaces. FIGS. 14D–14F.
A blank chip served as an in-line reference surface for subtraction of non-specific binding and bulk responses.
Surface Plasmon Resonance Biosensor Measurements. SPR biosensor measurements were determined on a BIACORE 3000 (BIACORE Inc., Uppsala, Sweden) instrument. […] A blank in-line reference surface (activated and de-activated for amine coupling) was used to subtract non-specific or bulk responses. Binding of proteins and peptides (biotinylated or free DP178, T649Q26L, DP178-scrambled) was monitored in real-time at 25° C. with a continuous flow of PBS (150 mM NaCl, 0.005% surfactant p20), pH 7.4 at 10–30 μl/min. Analyte (proteins and peptides) were removed and the sensor surfaces were regenerated following each cycle of binding by single or duplicate 5–10 μl pulses of regeneration solution (10 mM glycine-HCl, pH 2.5 or 10 mM NaOH).

[2] = A32-induced gp120, two-component dissociation

Chain of HIV-1 Env 89.6 gp120 (Q73372 32-508): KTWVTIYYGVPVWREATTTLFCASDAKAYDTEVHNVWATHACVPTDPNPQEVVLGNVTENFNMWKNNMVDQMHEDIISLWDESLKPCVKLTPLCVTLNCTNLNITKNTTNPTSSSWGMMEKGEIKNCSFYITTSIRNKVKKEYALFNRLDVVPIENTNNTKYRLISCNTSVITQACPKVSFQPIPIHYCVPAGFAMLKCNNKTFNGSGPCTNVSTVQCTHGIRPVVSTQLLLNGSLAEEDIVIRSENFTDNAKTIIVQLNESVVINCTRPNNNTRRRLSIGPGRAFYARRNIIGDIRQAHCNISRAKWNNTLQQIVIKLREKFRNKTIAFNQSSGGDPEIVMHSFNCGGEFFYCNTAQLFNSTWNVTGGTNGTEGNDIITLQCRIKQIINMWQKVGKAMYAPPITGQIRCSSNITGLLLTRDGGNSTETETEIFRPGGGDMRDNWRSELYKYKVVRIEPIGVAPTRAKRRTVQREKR
Chain of 89.6 gp120 (Q73372 32-508): as above
Chain of cleaved HIV 89.6 gp140 (Q73372 32-681): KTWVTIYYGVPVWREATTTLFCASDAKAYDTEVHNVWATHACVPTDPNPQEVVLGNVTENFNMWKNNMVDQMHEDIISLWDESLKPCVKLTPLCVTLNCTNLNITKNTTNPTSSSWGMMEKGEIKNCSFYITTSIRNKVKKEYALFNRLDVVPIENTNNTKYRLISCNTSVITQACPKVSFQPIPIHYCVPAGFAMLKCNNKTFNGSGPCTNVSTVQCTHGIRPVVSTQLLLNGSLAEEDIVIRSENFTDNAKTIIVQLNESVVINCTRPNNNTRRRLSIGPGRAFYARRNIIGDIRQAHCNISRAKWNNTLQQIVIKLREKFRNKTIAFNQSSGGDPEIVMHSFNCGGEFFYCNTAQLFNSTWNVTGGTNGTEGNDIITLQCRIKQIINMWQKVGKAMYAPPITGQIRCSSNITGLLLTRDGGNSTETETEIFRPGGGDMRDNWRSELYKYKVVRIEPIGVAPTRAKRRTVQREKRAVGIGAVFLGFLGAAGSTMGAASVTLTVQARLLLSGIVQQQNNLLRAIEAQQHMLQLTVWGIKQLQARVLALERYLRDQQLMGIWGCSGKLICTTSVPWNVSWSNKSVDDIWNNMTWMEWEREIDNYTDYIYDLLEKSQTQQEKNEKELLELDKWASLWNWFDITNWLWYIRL
Chain of HIV 89.6 gp140 (Q73372 32-681): as above

## enfuvirtide
Cleaved HIV 89.6 gp140
  Rm (maximal binding at equilibrium): 35 RU
  binding to cleaved gp140 (in words): Low level binding
Recombinant ADA gp41; SPR
  binding to immobilized gp41 (in words): bound well
Recombinant ADA gp41; Scatchard plot, read-out: Keq (equilibrium binding constant)
  Kd: 26.7 µM
89.6 gp120; +A32
  binding higher than expected due to mass effect only: 3 fold
89.6 gp120; [2]
  faster off-rate: 0.020 s⁻¹
  slower off-rate: 0.0016 s⁻¹
89.6 gp120; gp120 pre-incubated with A32 (+A32)
  binding signal of A32-gp120 over peptide surface: ~400 RU
BaL gp120
  binding to BaL gp120 complexed with A32, CD4 or T8 (in words): neither DP178 nor scrDP178 bound
HIV-1 Env 89.6 gp120
  Kd: 0.82 µM
HIV-1 Env 89.6 gp120; biphasic binding
  faster component of the dissociation phase: 0.023 s⁻¹
HIV-1 Env 89.6 gp120; biphasic binding, predominant
  slower component of the dissociation phase: 0.001 s⁻¹
HIV-1 Env 89.6 gp120; peptide 50 μg/ml
  binding to gp120 bound to CD4 or A32 (in words): specific induction of DP178 binding; also recorded: Marked induction
  binding to gp120 bound to mAb T8 (in words): no differences were observed
HIV 89.6 gp140
  immunoprecipitation of gp41 and gp140 (in words): constitutively immunoprecipitated
[1]
  binding to T8-gp140 surface (in words): near background binding
